Measured values: US10815247B2, “Functionalized NANOLUC inhibitors” (PROMEGA CORPORATION, priority 2016, dated 2020)
Entries after “also recorded” stand apart in the source; their conditions may differ. Like-named read-outs stand apart in the source and are kept apart here.

Columns and labels:
NanoLuc [1] = molecular target: T1, NanoLuc (Oplophorus gracilirostris, UniProt Q9GV45, A31E/A60N/A81I/F95D/I117V/K70R/L54V/L99Q/M102K/N193R/P142E/Q151K/Q38R/Q45L/V71I/Y165I); experiment: Inhibitor IC50 determination; assay type: biochemical
T1 sequence (Q9GV45 28-196 with tags or gaps with the stated changes limits assumed): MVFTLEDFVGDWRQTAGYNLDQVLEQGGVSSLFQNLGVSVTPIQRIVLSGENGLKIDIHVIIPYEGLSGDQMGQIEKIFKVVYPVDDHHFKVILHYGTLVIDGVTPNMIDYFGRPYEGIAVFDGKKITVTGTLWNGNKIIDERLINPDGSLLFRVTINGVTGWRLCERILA
Method: The following example provides the IC50 values for the compounds disclosed herein. NANOLUC® enzyme was diluted to 0.4 ng/ml in CO2 independent media+10% FBS to make the detection reagent. A 3× dilution series of each inhibitor was then made in the detection reagent. A “no inhibitor” control was also made for each sample. 50 ul of each inhibitor dilution was mixed with 50 ul of NanoGlo® buffer containing 20 μM furimazine (final furimazine concentration is 10 μM, which is at Km.), and luminescence was measured. Each sample was normalized to the “no inhibitor” control. The IC50 values were then determined using GraphPad Prism (log[inhibitor] vs. normalized response).

NanoLuc [2] = molecular target: T1, NanoLuc; details: inhibitor diluted to 3 uM, NanoLuc 0.4 ng/ml, 100 uM furimazine, read at two minute intervals
Method: Inhibitors were diluted to 3 uM into OptiMEM+0.1% FBS. NanoLuc was diluted to 0.4 ng/ml into NanoGlo® buffer+100 uM furimazine. 50 ul of each inhibitor was added to 50 ul of the NanoLuc/furimazine/NanoGlo® solution. Samples were immediately placed in a GloMax Multi+ set to read in kinetic mode at two minute intervals.
Inhibitors were diluted to 3 uM into OptiMEM+0.1% FBS. NanoLuc was diluted to 0.4 ng/ml into NanoGlo® buffer+100 uM furimazine. 50 ul of each inhibitor was added to 50 ul of the NanoLuc/furimazine/NanoGlo® solution. Samples were immediately placed in a GloMax® Multi+ set to read in kinetic mode at two minute intervals.

NanoLuc [3] = molecular target: T1, NanoLuc; experiment: Suicide inhibition: displacement of inhibitor by furimazine upon dilution (FIG. 7); details: 10 μM Nluc + 10 μM inhibitor 30 minutes at RT, diluted to 10 pM, furimazine 10 uM
Method: Following dilution, 50 ul of the dilution was combined with 50 ul of NanoGlo® assay buffer.
Following dilution, 50 ul of the dilution was combined with 50 ul of NanoGlo® assay buffer. Final furimazine concentration was 10 uM.

[4] = 0.4 ng/ml NANOLUC in CO2 independent media+10% FBS, final furimazine 10 μM, no pre-incubation noted, read-out: IC50

With `CCN(C(=O)Cn1c(C(=O)N[C@H]2CC[C@H](C(=O)NCCCCCCCC(=O)NCCOCCOCCC(=O)ON3C(=O)CCC3=O)CC2)cc2sccc21)c1cccc(C)c1` [JRW-0544, 2,5-dioxopyrrolidin-1-yl 1-(trans-4-(4-(2-(ethyl(m-tolyl)amino)-2-oxoethyl)-4H-thieno[3,2-b]pyrrole-5-carboxamido)cyclohexyl)-1,10-dioxo-14,17-dioxa-2,11-diazaicosan-20-oate] the IC50 (NanoLuc [1]) was 13 nM and the “Nluc inhibition over time (kinetic light output)” value (NanoLuc [2]) was “steady state binding”.
`CCN(C(=O)Cn1c(C(=O)N[C@H]2CC[C@H](C(=O)OC)CC2)cc2sccc21)c1cccc(CCCBr)c1` [JRW-0548, methyl trans-4-(4-(2-((3-(3-bromopropyl)phenyl)(ethyl)amino)-2-oxoethyl)-4H-thieno[3,2-b]pyrrole-5-carboxamido)cyclohexane-1-carboxylate] was tested, and the IC50 (NanoLuc [1]) was 99 nM and the “Nluc inhibition over time (kinetic light output)” value (NanoLuc [2]) was “steady state inhibition”.
`CCc1cccc(N(CC)C(=O)Cn2c(C(=O)N[C@H]3CC[C@H](C(=O)NCCCCCC(=O)OC)CC3)cc3ccccc32)c1` [JRW-0598, methyl 6-(trans-4-(1-(2-(ethyl(3-ethylphenyl)amino)-2-oxoethyl)-1H-indole-2-carboxamido)cyclohexane-1-carboxamido)hexanoate] was tested, and the IC50 (NanoLuc [1]) was 0.4 nM and the “displacement of inhibitor by furimazine upon dilution” value (“displacement of inhibitor” below) (NanoLuc [3]) was “slower”.
For `CCc1cccc(N(CC)C(=O)Cn2c(C(=O)N[C@H]3CC[C@H](C(=O)NCCCCCCCC(=O)ON4C(=O)CCC4=O)CC3)cc3ccccc32)c1` [JRW-0600, 2,5-dioxopyrrolidin-1-yl 8-(trans-4-(1-(2-(ethyl(3-ethylphenyl)amino)-2-oxoethyl)-1H-indole-2-carboxamido)cyclohexane-1-carboxamido)octanoate], the “displacement of inhibitor” value (NanoLuc [3]) was “not displaced” and the “reversibility of Nluc inhibition” value (NanoLuc [3]) was “irreversible inhibition; also recorded: irreversibly inhibit”.
In the case of `CCc1cccc(N(CC)C(=O)Cn2c(C(=O)N[C@H]3CC[C@H](C(=O)NCCCCCC(=O)ON4C(=O)CCC4=O)CC3)cc3ccccc32)c1` [JRW-0604, 2,5-dioxopyrrolidin-1-yl 6-(trans-4-(1-(2-(ethyl(3-ethylphenyl)amino)-2-oxoethyl)-1H-indole-2-carboxamido)cyclohexane-1-carboxamido)hexanoate], the IC50 (NanoLuc [1]) is reported as 2.7 nM, the “displacement of inhibitor” value (NanoLuc [3]) is reported as “slower” and the “reversibility of Nluc inhibition” value (NanoLuc [3]) is reported as “did not show irreversible inhibition”.
For `CCc1cccc(N(CC)C(=O)Cn2c(C(=O)N[C@H]3CC[C@H](C(=O)NCCCCCC(=O)Oc4ccccc4)CC3)cc3ccccc32)c1` [JRW-0606, phenyl 6-(trans-4-(1-(2-(ethyl(3-ethylphenyl)amino)-2-oxoethyl)-1H-indole-2-carboxamido)cyclohexane-1-carboxamido)hexanoate], the IC50 (NanoLuc [1]) was 4.1 nM and the “displacement of inhibitor” value (NanoLuc [3]) was “slower”.
In the case of `CCc1cccc(N(CC)C(=O)Cn2c(C(=O)N[C@H]3CC[C@H](C(=O)NCCCCCCNC(=O)c4ccc5c(c4)C(=O)OC54c5ccc(OC(C)=O)cc5Oc5cc(OC(C)=O)ccc54)CC3)cc3ccccc32)c1` [JRW-0650, 5-((6-(trans-4-(1-(2-(ethyl(3-ethylphenyl)amino)-2-oxoethyl)-1H-indole-2-carboxamido)cyclohexane-1-carboxamido)hexyl)carbamoyl)-3-oxo-3H-spiro[isobenzofuran-1,9′-xanthene]-3′,6′-diyl diacetate], the “displacement of inhibitor” value (NanoLuc [3]) is reported as “slower”.
For `CCc1cccc(N(CC)C(=O)Cn2c(C(=O)N[C@H]3CC[C@H](C(=O)NCCCCCCCCNC(=O)CCc4ccc5n4[B-](F)(F)[N+]4=C(C)C=C(C)C4=C5)CC3)cc3ccccc32)c1` [JRW-0888, N-(trans-4-((8-(3-(5,5-difluoro-7,9-dimethyl-5H-5λ4,6λ4-dipyrrolo[1,2-c:2′,1′-f][1,3,2]diazaborinin-3-yl)propanamido)octyl)carbamoyl)cyclohexyl)-1-(2-(ethyl(3-ethylphenyl)amino)-2-oxoethyl)-1H-indole-2-carboxamide], the IC50 (NanoLuc [1]) was 26 nM.
With `CCN(C(=O)Cn1c(C(=O)NC2CCC(C(=O)NCCCCCCCCNC(=O)CCC3=[N+]4C(=Cc5c(C)cc(C)n5[B-]4(F)F)C=C3)CC2)cc2sccc21)c1cccc(C)c1` (stereo not drawn) [JRW-0889, N-(trans-4-((8-(3-(5,5-difluoro-7,9-dimethyl-5H-5λ4,6λ4-dipyrrolo[1,2-c:2′,1′-f][1,3,2]diazaborinin-3-yl)propanamido)octyl)carbamoyl)cyclohexyl)-4-(2-(ethyl(m-tolyl)amino)-2-oxoethyl)-4H-thieno[3,2-b]pyrrole-5-carboxamide] the IC50 (NanoLuc [1]; [4]) was 280 nM.
With `CCc1cccc(N(CC)C(=O)Cn2c(C(=O)N[C@H]3CC[C@H](C(=O)NCCCCCCNC(=O)CCOCCOCCNC(=O)c4ccc5c(c4)C4(OC5=O)c5ccc(N(C)C)cc5Oc5cc(N(C)C)ccc54)CC3)cc3ccccc32)c1` [JRW-0915, N-(trans-4-((1-(3′,6′-bis(dimethylamino)-3-oxo-3H-spiro[isobenzofuran-1,9′-xanthen]-6-yl)-1,11-dioxo-5,8-dioxa-2,12-diazaoctadecan-18-yl)carbamoyl)cyclohexyl)-1-(2-(ethyl(3-ethylphenyl)amino)-2-oxoethyl)-1H-indole-2-carboxamide] the IC50 (NanoLuc [1]) was 5.2 nM.
Work on `CCc1cccc(N(CC)C(=O)Cn2c(C(=O)N[C@H]3CC[C@H](C(=O)NCCCCCCCCNC(=O)CCOCCOCCNC(=O)c4ccc5c(c4)C4(OC5=O)c5ccc(N(C)C)cc5Oc5cc(N(C)C)ccc54)CC3)cc3ccccc32)c1` [JRW-0920, N-(trans-4-((1-(3′,6′-bis(dimethylamino)-3-oxo-3H-spiro[isobenzofuran-1,9′-xanthen]-6-yl)-1,11-dioxo-5,8-dioxa-2,12-diazaicosan-20-yl)carbamoyl)cyclohexyl)-1-(2-(ethyl(3-ethylphenyl)amino)-2-oxoethyl)-1H-indole-2-carboxamide] yielded an IC50 (NanoLuc [1]) of 1.7 nM.
`CCc1cccc(N(CC)C(=O)Cn2c(C(=O)N[C@H]3CC[C@H](C(=O)NCCCCCCCCNC(=O)CCC(=O)NCCC4=C5C=CC=[N+]5[B-](F)(F)n5c(C)cc(C)c54)CC3)cc3ccccc32)c1` [JRW-1081, N1-(2-(5,5-difluoro-1,3-dimethyl-5H-5λ4,6λ4-dipyrrolo[1,2-c:2′,1′-f][1,3,2]diazaborinin-10-yl)ethyl)-N4-(8-(trans-4-(1-(2-(ethyl(3-ethylphenyl)amino)-2-oxoethyl)-1H-indole-2-carboxamido)cyclohexane-1-carboxamido)octyl)succinamide] showed an IC50 (NanoLuc [1]) of 6 nM.
“N1-(2-(5,5-difluoro-1,3-dimethyl-5H-5λ4,6λ4-dipyrrolo[1,2-c:2′,1′-f][1,3,2]diazaborinin-10-yl)ethyl)-N4-(1-(trans-4-(1-(2-(ethyl(3-ethylphenyl)amino)-2-oxoethyl)-1H-indole-2-carboxamido)cyclohexyl)-1,10-dioxo-13,16-dioxa-2,9-diazaoctadecan-18-yl)succinamide [JRW-1082]” gave an IC50 (NanoLuc [1]; [4]) of 3.3 nM.
In the case of “N1-(2-(5,5-difluoro-1,3-dimethyl-5H-5λ4,6λ4-dipyrrolo[1,2-c:2′,1′-f][1,3,2]diazaborinin-10-yl)ethyl)-N4-(1-(trans-4-(1-(2-(ethyl(3-ethylphenyl)amino)-2-oxoethyl)-1H-indole-2-carboxamido)cyclohexyl)-1,12-dioxo-15,18-dioxa-2,11-diazaicosan-20-yl)succinamide [JRW-1083]”, the IC50 (NanoLuc [1]; [4]) is reported as 1.8 nM.
Compound “N-(trans-4-((1-(3′,6′-dihydroxy-3-oxo-3H-spiro[isobenzofuran-1,9′-xanthen]-5,6-yl)-1,11-dioxo-5,8-dioxa-2,12-diazaicosan-20-yl)carbamoyl)cyclohexyl)-1-(2-(ethyl(3-ethylphenyl)amino)-2-oxoethyl)-1H-indole-2-carboxamide [JRW-0921]” has an IC50 (NanoLuc [1]; [4]) of 1.1 nM.
For “N-(trans-4-((6-(3′,6′-diamino-3-oxo-3H-spiro[isobenzofuran-1,9′-xanthene]-5,6-carboxamido)hexyl)carbamoyl)cyclohexyl)-1-(2-(ethyl(3-ethylphenyl)amino)-2-oxoethyl)-1H-indole-2-carboxamide [JRW-0859]”, the IC50 (NanoLuc [1]; [4]) was 2 nM.
Work on “N-(trans-4-((8-(3′,6′-diamino-3-oxo-3H-spiro[isobenzofuran-1,9′-xanthene]-5,6-carboxamido)octyl)carbamoyl)cyclohexyl)-1-(2-(ethyl(3-ethylphenyl)amino)-2-oxoethyl)-1H-indole-2-carboxamide [JRW-0886]” yielded an IC50 (NanoLuc [1]; [4]) of 3.7 nM.
Compound “N-(trans-4-((8-(4′,5′-dichloro-3′,6′-dihydroxy-2′,7′-dimethoxy-3-oxo-3H-spiro[isobenzofuran-1,9′-xanthene]-5,6-carboxamido)octyl)carbamoyl)cyclohexyl)-1-(2-(ethyl(3-ethylphenyl)amino)-2-oxoethyl)-1H-indole-2-carboxamide [JRW-0964]” has an IC50 (NanoLuc [1]; [4]) of 12 nM.
Work on “N-(trans-4-((8-(6-((Z)-2-((E)-3-(1,1-dimethyl-1,4,5,6-tetrahydro-3λ4-pyrrolo[3,2,1-ij]quinolin-2-yl)allylidene)-1-methyl-1,2,5,6-tetrahydro-4H-pyrrolo[3,2,1-ij]quinolin-1-yl)hexanamido)octyl)carbamoyl)cyclohexyl)-1-(2-(ethyl(3-ethylphenyl)amino)-2-oxoethyl)-1H-indole-2-carboxamide [JRW-0958]” yielded an IC50 (NanoLuc [1]; [4]) of 16 nM.
